Data on six compounds can be found in ChEMBL document CHEMBL5465560, “Selectivity Literature for EUbOPEN Chemogenomic Library” (2024).

In assay [1] the target is T1, Serine/threonine-protein kinase haspin (Homo sapiens) (UniProt Q8TF76).
T1 sequence (whole entry): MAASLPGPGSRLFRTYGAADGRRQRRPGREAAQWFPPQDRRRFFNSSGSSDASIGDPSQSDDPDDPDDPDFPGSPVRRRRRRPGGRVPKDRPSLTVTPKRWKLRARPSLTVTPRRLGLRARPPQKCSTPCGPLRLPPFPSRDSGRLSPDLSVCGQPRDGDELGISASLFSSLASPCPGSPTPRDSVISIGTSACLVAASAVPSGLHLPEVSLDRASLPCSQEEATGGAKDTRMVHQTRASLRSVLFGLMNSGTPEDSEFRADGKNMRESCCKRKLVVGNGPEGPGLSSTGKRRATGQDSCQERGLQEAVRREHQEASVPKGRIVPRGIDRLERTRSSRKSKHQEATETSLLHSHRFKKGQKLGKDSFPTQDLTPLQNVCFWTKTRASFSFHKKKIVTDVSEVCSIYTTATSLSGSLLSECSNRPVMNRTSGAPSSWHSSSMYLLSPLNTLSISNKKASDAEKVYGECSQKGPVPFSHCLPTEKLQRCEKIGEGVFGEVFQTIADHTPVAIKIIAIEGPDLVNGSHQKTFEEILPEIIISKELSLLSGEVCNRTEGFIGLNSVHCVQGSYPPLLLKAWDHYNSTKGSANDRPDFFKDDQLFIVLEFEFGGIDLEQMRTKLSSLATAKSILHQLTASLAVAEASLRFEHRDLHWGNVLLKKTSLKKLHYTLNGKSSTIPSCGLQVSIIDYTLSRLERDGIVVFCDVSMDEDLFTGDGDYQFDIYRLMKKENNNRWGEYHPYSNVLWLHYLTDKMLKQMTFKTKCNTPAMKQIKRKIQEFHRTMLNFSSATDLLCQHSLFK
Description: Selectivity interaction (Adapta Assay) EUB0001632a GSG2. Conditions: at 10 µM.

For assay [2], the target named is Serine/threonine-protein kinase SBK1 (Homo sapiens) (UniProt Q52WX2). Kind of assay: Selectivity interaction (KinomeScan (DiscoverX)) EUB0001619a SBK1. Conditions: at 1 µM.
Assay [3] deals with T2, Serine/threonine-protein kinase Nek9 (Homo sapiens) (UniProt Q8TD19).
T2 sequence (whole entry): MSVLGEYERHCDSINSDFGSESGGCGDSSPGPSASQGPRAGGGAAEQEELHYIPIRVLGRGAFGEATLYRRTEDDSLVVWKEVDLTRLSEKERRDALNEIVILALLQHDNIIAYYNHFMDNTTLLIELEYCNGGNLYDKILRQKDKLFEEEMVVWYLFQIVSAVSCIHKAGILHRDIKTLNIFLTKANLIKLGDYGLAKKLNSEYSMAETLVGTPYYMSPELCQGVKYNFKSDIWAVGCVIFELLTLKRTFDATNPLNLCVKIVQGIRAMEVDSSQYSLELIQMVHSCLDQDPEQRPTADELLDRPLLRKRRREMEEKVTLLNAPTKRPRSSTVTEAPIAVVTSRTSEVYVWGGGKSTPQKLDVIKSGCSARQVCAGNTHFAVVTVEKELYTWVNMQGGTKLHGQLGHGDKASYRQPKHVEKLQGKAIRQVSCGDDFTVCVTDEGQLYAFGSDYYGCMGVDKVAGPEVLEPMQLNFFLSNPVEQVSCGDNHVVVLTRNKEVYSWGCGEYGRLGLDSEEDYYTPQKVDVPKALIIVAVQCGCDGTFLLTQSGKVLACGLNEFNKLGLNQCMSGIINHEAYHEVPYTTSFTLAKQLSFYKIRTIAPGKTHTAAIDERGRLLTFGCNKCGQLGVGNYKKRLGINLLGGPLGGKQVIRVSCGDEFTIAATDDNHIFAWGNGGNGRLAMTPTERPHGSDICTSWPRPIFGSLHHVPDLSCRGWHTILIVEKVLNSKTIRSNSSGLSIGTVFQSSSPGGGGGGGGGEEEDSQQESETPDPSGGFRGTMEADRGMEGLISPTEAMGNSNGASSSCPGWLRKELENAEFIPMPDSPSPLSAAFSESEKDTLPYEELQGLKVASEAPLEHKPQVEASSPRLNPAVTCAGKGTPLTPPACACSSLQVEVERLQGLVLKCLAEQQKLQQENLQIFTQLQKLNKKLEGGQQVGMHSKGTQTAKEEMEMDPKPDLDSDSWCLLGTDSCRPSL
Kind of assay: Selectivity interaction (ActivX KiNativ screen (ex vivo kinase selectivity in human PBMCs)) EUB0001619a NEK9. It is filed as cell-based. The conditions noted are these: PBMC, at 1 µM.

Assay [4] concerns the target Serine/threonine-protein kinase SIK1 (Homo sapiens) (UniProt P57059). Description: Selectivity interaction (KinomeScan (DiscoverX)) EUB0000607a SIK1. The conditions noted are these: at 10 µM.
The target of assay [5] is Tyrosine-protein kinase Blk (Homo sapiens) (UniProt P51451). Kind of assay: Selectivity interaction (Kinase screening (Upstate/Millipore)) EUB0000604a BLK.
Assay [6] concerns the target T3, Serine/threonine-protein kinase D2 (Homo sapiens) (UniProt Q9BZL6).
T3 sequence (whole entry): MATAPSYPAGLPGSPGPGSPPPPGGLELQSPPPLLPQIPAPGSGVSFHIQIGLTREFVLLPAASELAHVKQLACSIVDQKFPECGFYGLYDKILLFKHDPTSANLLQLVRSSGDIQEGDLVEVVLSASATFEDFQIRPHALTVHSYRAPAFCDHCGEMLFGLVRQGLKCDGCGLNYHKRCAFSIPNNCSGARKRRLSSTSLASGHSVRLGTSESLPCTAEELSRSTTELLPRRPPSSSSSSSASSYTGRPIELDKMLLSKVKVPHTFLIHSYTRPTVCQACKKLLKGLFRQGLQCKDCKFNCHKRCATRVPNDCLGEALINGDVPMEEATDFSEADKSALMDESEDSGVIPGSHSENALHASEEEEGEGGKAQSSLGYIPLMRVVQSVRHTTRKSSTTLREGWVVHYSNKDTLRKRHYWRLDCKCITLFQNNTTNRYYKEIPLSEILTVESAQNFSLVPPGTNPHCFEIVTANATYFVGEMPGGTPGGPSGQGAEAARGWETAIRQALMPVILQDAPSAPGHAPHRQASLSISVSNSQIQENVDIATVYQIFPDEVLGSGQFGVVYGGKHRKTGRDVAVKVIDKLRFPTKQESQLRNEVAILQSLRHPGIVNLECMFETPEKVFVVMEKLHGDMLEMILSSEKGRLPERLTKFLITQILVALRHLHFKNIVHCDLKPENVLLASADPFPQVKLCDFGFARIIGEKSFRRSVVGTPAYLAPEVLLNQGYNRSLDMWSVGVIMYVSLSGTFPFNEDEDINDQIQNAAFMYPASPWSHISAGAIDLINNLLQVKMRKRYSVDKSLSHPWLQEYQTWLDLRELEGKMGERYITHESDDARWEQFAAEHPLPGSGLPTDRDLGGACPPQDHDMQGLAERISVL
Kind of assay: Selectivity interaction (KinomeScan (DiscoverX)) EUB0000045b PRKD2.

Assay [7] addresses Cyclin-dependent kinase 15 (Homo sapiens) (UniProt Q96Q40). Description: Selectivity interaction (KinomeScan (DiscoverX)) EUB0000655a CDK15. Conditions: at 10 µM.

The structures appear in SMILES notation.

Sequence of Tyrosine-protein kinase Blk (Homo sapiens) (P51451 2-505 limits assumed): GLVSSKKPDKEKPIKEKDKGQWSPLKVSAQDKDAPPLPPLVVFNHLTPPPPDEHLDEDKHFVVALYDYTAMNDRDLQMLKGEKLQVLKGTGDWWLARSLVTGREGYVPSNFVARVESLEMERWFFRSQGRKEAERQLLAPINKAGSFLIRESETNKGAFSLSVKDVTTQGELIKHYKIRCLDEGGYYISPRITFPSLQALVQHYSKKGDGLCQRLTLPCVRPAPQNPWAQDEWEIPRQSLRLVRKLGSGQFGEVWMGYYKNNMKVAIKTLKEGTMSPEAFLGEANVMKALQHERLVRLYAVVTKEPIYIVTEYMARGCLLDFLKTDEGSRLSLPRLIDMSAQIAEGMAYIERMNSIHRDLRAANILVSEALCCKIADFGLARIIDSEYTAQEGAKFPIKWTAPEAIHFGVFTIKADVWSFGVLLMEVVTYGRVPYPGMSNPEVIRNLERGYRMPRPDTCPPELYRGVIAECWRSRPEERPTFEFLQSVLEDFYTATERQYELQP
Sequence of Cyclin-dependent kinase 15 (Homo sapiens) (Q96Q40 whole entry): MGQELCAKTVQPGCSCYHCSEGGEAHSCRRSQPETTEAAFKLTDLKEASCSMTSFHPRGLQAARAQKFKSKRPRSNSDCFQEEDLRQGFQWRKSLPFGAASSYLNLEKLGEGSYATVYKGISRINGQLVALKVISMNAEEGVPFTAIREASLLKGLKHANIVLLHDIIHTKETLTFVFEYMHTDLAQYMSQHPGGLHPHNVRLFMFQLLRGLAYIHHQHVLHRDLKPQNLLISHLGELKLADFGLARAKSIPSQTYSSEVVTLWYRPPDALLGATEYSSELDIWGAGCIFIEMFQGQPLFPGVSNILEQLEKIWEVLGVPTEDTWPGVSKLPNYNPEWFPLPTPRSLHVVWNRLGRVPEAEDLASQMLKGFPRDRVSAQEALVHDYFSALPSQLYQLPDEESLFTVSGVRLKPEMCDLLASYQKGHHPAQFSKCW
Sequence of Serine/threonine-protein kinase SBK1 (Homo sapiens) (Q52WX2 whole entry): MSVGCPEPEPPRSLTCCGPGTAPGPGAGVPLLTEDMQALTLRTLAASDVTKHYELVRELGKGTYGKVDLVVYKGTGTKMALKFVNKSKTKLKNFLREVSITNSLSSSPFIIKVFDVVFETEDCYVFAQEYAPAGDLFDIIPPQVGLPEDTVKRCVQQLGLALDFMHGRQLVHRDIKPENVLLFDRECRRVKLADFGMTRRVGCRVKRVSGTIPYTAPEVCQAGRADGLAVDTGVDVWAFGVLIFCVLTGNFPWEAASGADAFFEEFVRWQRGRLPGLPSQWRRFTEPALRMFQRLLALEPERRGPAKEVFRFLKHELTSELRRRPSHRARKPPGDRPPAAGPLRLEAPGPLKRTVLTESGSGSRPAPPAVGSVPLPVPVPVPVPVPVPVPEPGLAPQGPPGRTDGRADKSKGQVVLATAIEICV
Sequence of Serine/threonine-protein kinase SIK1 (Homo sapiens) (P57059 whole entry): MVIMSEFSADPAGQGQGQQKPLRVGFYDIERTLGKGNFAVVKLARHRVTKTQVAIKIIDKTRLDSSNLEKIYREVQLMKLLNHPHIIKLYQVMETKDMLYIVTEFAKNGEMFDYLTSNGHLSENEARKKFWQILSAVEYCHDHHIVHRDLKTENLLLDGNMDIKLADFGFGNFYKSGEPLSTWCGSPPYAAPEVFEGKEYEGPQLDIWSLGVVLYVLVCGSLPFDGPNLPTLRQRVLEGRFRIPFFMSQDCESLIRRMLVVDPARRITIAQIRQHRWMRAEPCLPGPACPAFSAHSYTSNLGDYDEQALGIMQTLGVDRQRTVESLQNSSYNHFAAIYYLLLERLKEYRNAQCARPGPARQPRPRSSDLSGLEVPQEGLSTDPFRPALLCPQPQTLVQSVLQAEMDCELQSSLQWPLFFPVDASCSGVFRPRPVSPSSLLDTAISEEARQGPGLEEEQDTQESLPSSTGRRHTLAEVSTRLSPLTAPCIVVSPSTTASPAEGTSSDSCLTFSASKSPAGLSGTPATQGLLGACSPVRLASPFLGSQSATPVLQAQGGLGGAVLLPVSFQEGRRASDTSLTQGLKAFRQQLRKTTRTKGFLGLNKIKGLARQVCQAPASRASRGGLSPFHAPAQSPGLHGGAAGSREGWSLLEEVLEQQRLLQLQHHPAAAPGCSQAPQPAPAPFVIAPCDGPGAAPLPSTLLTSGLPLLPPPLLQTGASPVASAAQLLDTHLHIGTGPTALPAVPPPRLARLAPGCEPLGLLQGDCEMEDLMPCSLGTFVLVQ

On to `Cn1cc(-n2cnc3c(NCc4nc5cc(Cl)c(Cl)cc5[nH]4)nc(N4CCOCC4)nc32)cn1`, for which the % of inhibition in assay [1] stood at 45%.
Take `N#Cc1cccc(-c2c[nH]c3ncnc(N4CCOCC4)c23)c1`: in assay [2], the % of control was determined as 100%. Moreover, in assay [3], the % of inhibition amounted to 3%.
For `CNC(=O)Nc1ccc(-c2nc(N3CC4CCC(C3)O4)c3cnn(C4CCC5(CC4)OCCO5)c3n2)cc1`, the % of control in assay [4] was found to be 86%.
For `Cc1cnc(Nc2ccc(F)cc2Cl)nc1-c1c[nH]c(C(=O)N[C@H](CO)c2cccc(Cl)c2)c1`, the % of inhibition in assay [5] was 7%.
On to `C=CC(=O)Nc1cc(-n2c(=O)ccc3cnc4ccc(-c5ccc(NS(C)(=O)=O)cc5)cc4c32)ccc1C`, for which the % of control in assay [6] (at 1 µM) came out at 87%; in assay [6] (at 10 µM), 82%.
On to `CN(C)CCOc1ccc(-c2nc(-c3ccncc3)c(-c3ccc4c(c3)CC/C4=N\O)[nH]2)cc1`, for which the % of control in assay [7] is 100%.
